Assay results as given in patent US20080063628A1, “METHODS TO PROMOTE CELL DIFFERENTIATION” (priority 2006, published 2008).

What was measured:
Assay type in all cases: cell-based, human
[1] = tested on: second amniotic fluid-derived cell line; assay: Two high dose trichostatin A treatments (first 48 h), gene expression by RT-PCR (Example 9); details: for Gata1 gene expression / HNF-3 beta gene expression / Insulin gene expression / Pdx-1 gene expression / sox17 gene expression: 1.25 μM 0-48 h + 96-120 h;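 for Gata-1 RT-PCR detection cycle: lower cycle number means higher gene expression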;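 for HNF-3 beta RT-PCR detection cycle: lower cycle number means higher gene expression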
Method: (§1) Several cell lines obtained from different amniotic fluid specimens (see Example 14) and pancreas donors (see Example 13) were tested with similar results. Two lines at similar passage number but derived from different amniotic fluid specimens are shown in Table VIII-A and Table VIII-B for this example. One of these cell lines was also used in examples 2 and 4 above. In addition, this example also contains comparison data in Table VIII-C and Table VIII-D for a single pancreatic-derived stromal line grown to early and late passage number.
(§2) Amniotic fluid derived cells or pancreatic-derived stromal cells were seeded into 24-well tissue culture plates at a density of 5000/cm^2 and cultured in AMNIOMAX (Invitrogen) or DMEM with 10% FBS respectively under standard cell culture conditions until confluent. After reaching confluence, amniotic fluid derived cells were treated at time 0 hours with a dose of 1.25 μM trichostatin A, and pancreatic-derived stromal cells were treated with a dose of 5.0 μM trichostatin A solubilized in DMSO and medium. At time 48 hours, cell cultures underwent a complete medium change to remove all traces of trichostatin A. At time 96 hours, cell cultures were re-fed with fresh medium and received a second dose of trichostatin A at the same concentration as used previously. At time 120 hours, cell cultures again underwent a complete medium change and were cultured for an additional 24 hours or […] total incubation time. Samples were taken for RT-PCR at the times indicated in Table IX-A to D. RNA samples were obtained daily from the start of the experiment. Culture medium was removed, and cells were washed with PBS then collected in RLT with β-mercaptoethanol (Qiagen). RNA was purified using the RNeasy Mini Kit (Qiagen) and RNA quantity and quality was determined using a spectrophotometer. cDNA was made using the iScript cDNA synthesis kit (BioRad). Human pancreas cDNA was included as a control. Results were normalized against GAPDH expression levels.
(§3) Gene expression levels of Sox17, HNF-3 beta, Pdx-1, insulin, and glucagon were analyzed in amniotic-derived cells, while expression levels of glucagon, insulin, HNF-3 beta, and Pdx-1 were analyzed in pancreas-derived cells. Samples of 20 ng cDNA was used in each Real-Time PCR reaction. RT-PCR was performed on the Applied Biosystems 7500, according to the methods described in Example 15. The data were analyzed using the accompanying software.
(§4) Real-time PCR amplifcation and quantitative analysis. Unless otherwise stated, all reagents were purchased from Applied Biosystems. Real-time PCR reactions were performed using the ABI PRISM™ 7500 Sequence Detection System. TAQMAN™ FAST UNIVERSAL PCR MASTER MIX™ (ABI, CA) was used with 20 ng of reverse transcribed RNA in a total reaction volume of 20 μl. Each cDNA sample was run in duplicate to allow correction of pipetting errors. Primers and FAM-labeled TAQMAN™ probes were used at concentrations of 200 nM. The level of expression for each target gene was normalized using the pre-developed Applied Biosystem's human glyceraldehyde-3-phosphate dehydrogenase (GAPDH) endogenous control kit. Primers and probes were designed using either ABI PRISM PRIMER EXPRESS™ software or a pre-developed ABI gene analysis kit. For each gene, either one of the primers or the probe were designed to be exon-boundary spanning. This eliminated the possibility of the primers/probe binding to any genomic DNA present. The primer and probe sets are listed as follows: Pdx-1 (Hs00426216), Insulin (Hs00355773), glucagon (Hs00174967), and FoxA2 (HNF 3-beta) (Hs00232764). The remaining primers were designed using the PRIMERS program (ABI, CA). After an initial 95° C. incubation for 20 sec, samples were cycled 40 times in two stages: a denaturation step at 95° C. for 3 sec, followed by an annealing/extension step at 60° C. for 30 sec. […]

[2] = tested on: early passage (P5) pancreatic-derived stromal cell line; assay: as above; details: for HNF-3 beta gene expression / Insulin gene expression / Pdx-1 gene expression / glucagon gene expression: 5 μM 0-48 h + 96-120 h;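 for HNF-3 beta RT-PCR detection cycle: lower cycle number means higher gene expression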;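 for glucagon RT-PCR detection cycle: lower cycle number means higher gene expression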
Method: as §1, §2, §3, §4

[3] = tested on: second amniotic fluid-derived cell line; assay: Two sequential low dose trichostatin A treatments, gene expression by RT-PCR (Example 7); details: 0.5 μM, after 72 hours, remainder of the experiment
[4] = 1.25 μM, following the second treatment
[5] = 5.0 μM, following the second addition

For CC(/C=C/C(=O)NO)=C\[C@@H](C)C(=O)c1ccc(N(C)C)cc1 [trichostatin A], the Gata1 gene expression ([1]; 24 hrs) was “+ (detectable between 35 and 40 cycles by RT-PCR)”, the “HNF-3 beta gene expression” value ([1]; 24 hrs) was “+++ (detectable at less than 35 cycles by RT-PCR with SE less than 0.9)” and the Insulin gene expression ([1]; 24 hrs) was “nd (not detectable at >40 cycles by RT-PCR)”. The Pdx-1 gene expression ([1]; 24 hrs) was “++ (detectable at less than 35 cycles by RT-PCR with SE greater than 0.9)”, the sox17 gene expression ([1]; 24 hrs) was “+++ (detectable at less than 35 cycles by RT-PCR with SE less than 0.9)” and the Gata1 gene expression ([1]; 48 hrs) was “nd (not detectable at >40 cycles by RT-PCR)”. The “HNF-3 beta gene expression” value ([1]; 48 hrs) was “+++ (detectable at less than 35 cycles by RT-PCR with SE less than 0.9)”, the Insulin gene expression ([1]; 48 hrs) was “nd (not detectable at >40 cycles by RT-PCR)” and the Pdx-1 gene expression ([1]; 48 hrs) was “+ (detectable between 35 and 40 cycles by RT-PCR)”. The sox17 gene expression ([1]; 48 hrs) was “+++ (detectable at less than 35 cycles by RT-PCR with SE less than 0.9)”, the Gata1 gene expression ([1]; 72 hrs) was “nd (not detectable at >40 cycles by RT-PCR)” and the “HNF-3 beta gene expression” value ([1]; 72 hrs) was “+++ (detectable at less than 35 cycles by RT-PCR with SE less than 0.9)”. For the same compound, the Insulin gene expression ([1]; 72 hrs) was “nd (not detectable at >40 cycles by RT-PCR)”, the Pdx-1 gene expression ([1]; 72 hrs) was “nd (not detectable at >40 cycles by RT-PCR)” and the sox17 gene expression ([1]; 72 hrs) was “+++ (detectable at less than 35 cycles by RT-PCR with SE less than 0.9)”. For the same compound, the Gata1 gene expression ([1]; 96 hrs) was “nd (not detectable at >40 cycles by RT-PCR)”, the “HNF-3 beta gene expression” value ([1]; 96 hrs) was “+ (detectable between 35 and 40 cycles by RT-PCR)” and the Insulin gene expression ([1]; 96 hrs) was “nd (not detectable at >40 cycles by RT-PCR)”. The Pdx-1 gene expression ([1]; 96 hrs) was “nd (not detectable at >40 cycles by RT-PCR)”, the sox17 gene expression ([1]; 96 hrs) was “+++ (detectable at less than 35 cycles by RT-PCR with SE less than 0.9)” and the Gata1 gene expression ([1]; 120 hrs) was “+ (detectable between 35 and 40 cycles by RT-PCR)”. The “HNF-3 beta gene expression” value ([1]; 120 hrs) was “+++ (detectable at less than 35 cycles by RT-PCR with SE less than 0.9)”, the Insulin gene expression ([1]; 120 hrs) was “nd (not detectable at >40 cycles by RT-PCR)” and the Pdx-1 gene expression ([1]; 120 hrs) was “+++ (detectable at less than 35 cycles by RT-PCR with SE less than 0.9)”. For the same compound, the sox17 gene expression ([1]; 120 hrs) was “+++ (detectable at less than 35 cycles by RT-PCR with SE less than 0.9)”, the “HNF-3 beta RT-PCR detection cycle” value ([1]; 1.25 μM, by 96 hours) was 37 cycles and the “HNF-3 beta RT-PCR detection cycle” value ([1]; 1.25 μM, first 72 hours) was 34 cycles. For the same compound, the “Pdx-1 RT-PCR detection cycle” value ([1]; 1.25 μM, following the initial 48-hour treatment) was 35 cycles, the “Gata-1 RT-PCR detection cycle” value [1, 4] was 38 cycles and the “HNF-3 beta RT-PCR detection cycle” value [1, 4] was 33 cycles. For the same compound, the “Pdx-1 RT-PCR detection cycle” value [1, 4] was 34 cycles, the “HNF-3 beta gene expression” value ([2]; 24 hrs) was “+++ (detectable at less than 35 cycles by RT-PCR with SE less than 0.9)” and the Insulin gene expression ([2]; 24 hrs) was “nd (not detectable at >40 cycles by RT-PCR)”. For the same compound, the Pdx-1 gene expression ([2]; 24 hrs) was “+++ (detectable at less than 35 cycles by RT-PCR with SE less than 0.9)”, the glucagon gene expression ([2]; 24 hrs) was “+++ (detectable at less than 35 cycles by RT-PCR with SE less than 0.9)” and the “HNF-3 beta gene expression” value ([2]; 48 hrs) was “+++ (detectable at less than 35 cycles by RT-PCR with SE less than 0.9)”. For the same compound, the Insulin gene expression ([2]; 48 hrs) was “nd (not detectable at >40 cycles by RT-PCR)”, the Pdx-1 gene expression ([2]; 48 hrs) was “+++ (detectable at less than 35 cycles by RT-PCR with SE less than 0.9)” and the glucagon gene expression ([2]; 48 hrs) was “+++ (detectable at less than 35 cycles by RT-PCR with SE less than 0.9)”. For the same compound, the “HNF-3 beta gene expression” value ([2]; 72 hrs) was “nd (not detectable at >40 cycles by RT-PCR)”, the Insulin gene expression ([2]; 72 hrs) was “+++ (detectable at less than 35 cycles by RT-PCR with SE less than 0.9)” and the Pdx-1 gene expression ([2]; 72 hrs) was “nd (not detectable at >40 cycles by RT-PCR)”. The glucagon gene expression ([2]; 72 hrs) was “+ (detectable between 35 and 40 cycles by RT-PCR)”, the “HNF-3 beta gene expression” value ([2]; 96 hrs) was “nd (not detectable at >40 cycles by RT-PCR)” and the Insulin gene expression ([2]; 96 hrs) was “nd (not detectable at >40 cycles by RT-PCR)”. The Pdx-1 gene expression ([2]; 96 hrs) was “nd (not detectable at >40 cycles by RT-PCR)”, the glucagon gene expression ([2]; 96 hrs) was “+ (detectable between 35 and 40 cycles by RT-PCR)” and the “HNF-3 beta gene expression” value ([2]; 120 hrs) was “+++ (detectable at less than 35 cycles by RT-PCR with SE less than 0.9)”. The Insulin gene expression ([2]; 120 hrs) was “nd (not detectable at >40 cycles by RT-PCR)”, the Pdx-1 gene expression ([2]; 120 hrs) was “+++ (detectable at less than 35 cycles by RT-PCR with SE less than 0.9)” and the glucagon gene expression ([2]; 120 hrs) was “+ (detectable between 35 and 40 cycles by RT-PCR)”. The “Pdx-1 RT-PCR detection cycle” value ([2]; 5.0 μM, 48 hours) was 32 cycles, the “glucagon RT-PCR detection cycle” value ([2]; 5.0 μM, 48 hours) was 33 cycles and the “glucagon RT-PCR detection cycle” value ([2]; 5.0 μM, after trichostatin A was removed) was 38 cycles. The “Insulin RT-PCR detection cycle” value ([2]; 5.0 μM, following the medium change) was 33 cycles, the “Pdx-1 RT-PCR detection cycle” value [2, 5] was 32 cycles and the “glucagon RT-PCR detection cycle” value [2, 5] was 37 cycles. For the same compound, the “glucagon RT-PCR detection cycle” value ([2]; 5.0 μM, following treatment) was 35 cycles, the “HNF-3 beta RT-PCR detection cycle” value ([2]; 5.0 μM, following treatment until removal) was 34 cycles and the “HNF-3 beta RT-PCR detection cycle” value ([2]; 5.0 μM, when trichostatin A was added again) was 33 cycles. The “HNF-3 beta RT-PCR detection cycle” value [3] was 37 cycles.
